Test system: RAW264.7
Assay: Inhibition of LPS-stimulated nitric oxide production in […] RAW264.7 cells after 24 hrs by Griess assay
Assay type: functional, cell-based
Details: Mus musculus; for IC50: RAW264.7, 24 h

Row | SMILES | IC50 | inhibition
1 | CC(C)CC(=O)OCC1=COC=C2C1=CC(=O)[C@]2(O)CCl | 27.6 µM | –
2 | CC(C)CC(=O)OCC1=CO[C@@H](OC(=O)CC(C)C)[C@H]2C1=C[C@H](O)[C@]2(O)CO | > 50 µM | –
3 | CC(C)CC(=O)OCC1=CO[C@H](OC(=O)CC(C)C)[C@H]2C1(O)C[C@@H](O)[C@]2(O)COC(=O)CC(C)C (some centres undefined) | 14.7 µM | Dose-dependent effect
4 | CC(C)CC(=O)OCC1=COC=C2C1=CC(=O)[C@]2(O)COC(=O)CC(C)C | 17.1 µM | Dose-dependent effect
5 | COc1cc([C@@H](O)[C@@H](COC(=O)CC(C)C)Oc2c(O)cc(/C=C/COC(=O)CC(C)C)cc2OC)cc(OC)c1O | 17.8 µM | Dose-dependent effect
6 | CC(C)CC(=O)OCC1=CO[C@H](OC(=O)CC(C)C)[C@@H]2[C@@](O)(COC(=O)CC(C)C)[C@H](O)C[C@]12O | 26 µM | –

Reference: ChEMBL document CHEMBL4145603, “Iridoids from the Roots of Patrinia scabra and Their Inhibitory Potential on LPS-Induced Nitric Oxide Production” (J Nat Prod, 2018)
